Results taken from PubChem BioAssay AID1996.
In brackets after ≈: the same amount, converted by molar mass.

Conditions: buffer; pH 7.4; 200.0 µM

Row | Structure (SMILES) | solubility kinetic [µg/mL]
1 | CCOC(=O)c1sc(NC(=O)c2ccc(=O)[nH]c2)nc1C | 7.3 (≈ 23.8 µM)
2 | Cc1ccc(CNc2ccccc2C(=O)O)s1 | 23 (≈ 93 µM)
3 | O=c1c2ccccc2nc2n1CCO2 | > 28.2
4 | CCCn1c(N)cc(=O)n(CCC)c1=O | > 31.7
5 | O=C(CCCCl)NC(=S)Nc1ccc(N2CCOCC2)cc1 | 11.4 (≈ 33.3 µM)
6 | CCc1nc2ccccc2c(C(=O)OCc2nc3ccccc3c(=O)[nH]2)c1C | 14.5 (≈ 38.8 µM)
7 | CCOC(=O)COc1ccccc1/C=C1\NC(=O)NC1=O | 33 (≈ 114 µM)
8 | Cc1ccc(NC(=O)CNC(=O)Cc2cccc3ccccc23)nc1 | 11.6 (≈ 34.8 µM)
9 | O=C(NCC(O)CO)c1csc(Nc2cccc3ccccc23)n1 (stereo not drawn) | 38.5 (≈ 112 µM)
10 | CC1CCN(C(=O)COC(=O)c2ccc3ccccc3n2)CC1 | > 46.9
11 | CCOC(=O)c1ccc(NC(=S)NC(=O)C2CCCC2)cc1 | < 0.3
12 | CN(CCc1ccccc1)c1ccc([N+](=O)[O-])cn1 | 9.6 (≈ 37.3 µM)
13 | Cc1ccc2c(CN3CCCCC3CCO)cc(=O)oc2c1 (stereo not drawn) | 39.4 (≈ 131 µM)
14 | O=C(COC(=O)c1cc[n+]([O-])cc1)NCc1ccccc1Cl | > 48.1
15 | O=C(CN1CCCCC1)NNC(=O)c1ccc([N+](=O)[O-])cc1 | > 45.9
16 | CN(C)/C=C/C(=O)c1cccc(Oc2ncccn2)c1 | > 40.4
17 | COc1ccccc1CNC(=O)COC(=O)c1ccc(Cl)nc1 | > 50.2
18 | CC(=NCCc1ccccc1)c1c(O)n(C)c(=O)n(C)c1=O | 37.2 (≈ 123 µM)
19 | O=C(Cc1ccccc1F)Nc1ccc2c(c1)CCC2 | 4.7 (≈ 17.5 µM)
20 | Cc1ccc(CNc2cnccn2)s1 | 30 (≈ 146 µM)
21 | Cc1cc(C)c2c(N)c(C(=O)Nc3cccc(C)c3C)sc2n1 | 1.2 (≈ 3.69 µM)
22 | O=[N+]([O-])c1ccc(NCCOc2ccccc2Cl)nc1 | 1.7 (≈ 5.79 µM)

Row | Structure (SMILES) | solubility kinetic [µg/mL]
23 | Cn1cc(C(=O)OCC(=O)NC2(C#N)CCCC2)c2ccccc21 | > 48.8
24 | O=C1c2ccccc2C(=O)N1Cc1ccccc1F | 1.5 (≈ 5.88 µM)
25 | NC(=O)C1CCCN(CC(=O)N2CCN(c3ccccc3)CC2)C1 (stereo not drawn) | 48.4 (≈ 146 µM)
26 | O=C(O)C1CCC(=O)N(C2CCCCC2)C1c1ccccc1Cl (stereo not drawn) | > 50.4
27 | c1ccc2ncccc2c1 | 12.4 (≈ 96 µM)
28 | CC(OC(=O)c1cccnc1Cl)C(=O)NCc1ccccc1 (stereo not drawn) | > 47.8
29 | Cc1cc(N2CCN(C)CC2)nc2ccccc12 | 32.9 (≈ 136 µM)
30 | O=S(=O)(NC(=S)NC1CCCCC1)c1ccccc1 | 44 (≈ 147 µM)
31 | O=C(NC(=O)N1CCCCCC1)c1ccccc1 | > 36.9
32 | COC(=O)C1CCN(C(=O)c2ccc(Cl)c(S(=O)(=O)NCc3ccco3)c2)CC1 | 53.6 (≈ 122 µM)
33 | CCc1cc2c(NC(Cc3ccccc3)C(=O)O)ncnc2s1 (stereo not drawn) | > 49.1
34 | CCc1cc(C(=O)NCC2CCCO2)sc1C (stereo not drawn) | > 38
35 | CCN(CC(=O)Nc1cccc(OC)c1)C(=O)c1ccco1 | > 45.3
36 | O=C(CN1C(=O)NC2(CCCc3ccccc32)C1=O)NCCc1ccc(F)cc1 (stereo not drawn) | > 59.3
37 | CCOC(=O)CN1C(=O)S/C(=C\c2ccc3c(c2)OCO3)C1=O | 1.8 (≈ 5.37 µM)
38 | CCN1C(=O)N(c2ccc(C(C)=O)cc2)S(=O)(=O)c2ccccc21 | 47.6 (≈ 138 µM)
39 | N#Cc1c(-c2cccnc2)c2c([nH]c1=O)-c1ccccc1OC2 | > 45.2
40 | CC(C)(C)c1cc(C(=S)N2CCCC2)cc(C(C)(C)C)c1O | 4.7 (≈ 14.7 µM)
41 | O=c1[nH]snc1N1CCOCC1 | > 28.1
42 | Cn1ccnc1SCc1cccc([N+](=O)[O-])c1 | > 37.4
43 | CCc1ccc(Nc2c([N+](=O)[O-])c(=O)oc3ccccc23)cc1 | 1.4 (≈ 4.51 µM)
44 | Cc1cccc(-c2noc(CCC(=O)Nc3ccc(C(N)=O)cc3)n2)c1 | 0.5 (≈ 1.43 µM)

Row | Structure (SMILES) | solubility kinetic [µg/mL]
45 | COC(CNC(=O)c1coc2nc3ccccc3nc12)OC | 34.8 (≈ 115 µM)
46 | Nc1cc(=O)[nH]c(SCc2ccccc2Cl)n1 | 6.9 (≈ 25.8 µM)
47 | COc1ccc(CCCC(=O)NCCc2ccccc2)cc1 | 35.2 (≈ 118 µM)
48 | COc1ccc2c(C(=O)CN3CCSCC3)c[nH]c2c1 | 36.8 (≈ 127 µM)
49 | S=C(Nc1ccccc1Oc1ccccc1)NC1CCCC1 | 5 (≈ 16 µM)
50 | COc1ccc(CCNC(=O)/C=C/c2ccco2)cc1OC | > 45.2
51 | O=C1CCCN1CCCNC(=S)Nc1ccccc1 | 41 (≈ 148 µM)
52 | CC(=O)C1=C(O)C(=O)N(Cc2ccccc2)C1c1ccc(F)cc1 (stereo not drawn) | > 48.8
53 | CCOc1nc(C)cc(C)c1S(=O)(=O)c1cccc(Cl)c1 | 6.2 (≈ 19 µM)
54 | COc1ccc(NS(=O)(=O)c2ccc3[nH]c(=O)[nH]c3c2)cc1OC | > 52.4
55 | CCOC(=O)c1ccccc1CN1C(=O)c2ccccc2S1(=O)=O | < 0.7
56 | O=C(O)CCc1nc2cc(Cl)ccc2n(Cc2ccccc2)c1=O | > 51.4
57 | O=Cc1c(Cl)nc2ccccn2c1=O | > 31.3
58 | Cc1ccc(C2=NOC(=O)/C2=C\c2ccccc2)cc1 | 33.7 (≈ 128 µM)
59 | CN(C)c1ccc(/C=C2\C(=O)NC(=O)N(CCc3ccc(F)cc3)C2=O)cc1 | 11.2 (≈ 29.4 µM)
60 | O=C(COC(=O)/C=C/c1ccc(OC(F)F)cc1)Nc1ccc2[nH]c(=O)[nH]c2c1 | 5.3 (≈ 13.1 µM)
61 | Cc1nc2nc(SCc3nc4ccccc4[nH]3)[nH]c2cc1Br | 1.1 (≈ 2.94 µM)
62 | Cc1ncoc1C(=O)N1CCCC(C(=O)c2cccc3ccccc23)C1 (stereo not drawn) | 50.3 (≈ 144 µM)
63 | Cc1c(C)n2c3c(cccc13)CC2 | 0.4 (≈ 2.34 µM)
64 | Cc1ccc(N=Cc2ccc(N(C)C)cc2)cc1C | 20.3 (≈ 80.4 µM)
65 | N#CCSc1nc2ccccc2c(=O)n1CCCC(=O)NCC1CCCO1 (stereo not drawn) | 47.7 (≈ 123 µM)
66 | COc1cccc(C(=O)OCC(=O)c2[nH]c(C)c(C(C)=O)c2C)c1 | 2.1 (≈ 6.38 µM)

Row | Structure (SMILES) | solubility kinetic [µg/mL]
67 | Cc1ccnc(Nc2nc(-c3ccc(O)c(O)c3)cs2)c1 | 8.7 (≈ 29.1 µM)
68 | O=c1c2ccccc2nc2ccccn12 | 28.7 (≈ 146 µM)
69 | COc1ccccc1C(C)NC(=O)CCNC(=O)c1ccc(Cl)cc1 (stereo not drawn) | 4.5 (≈ 12.5 µM)
70 | O=C(CCn1c(=O)sc2ccccc21)NC1CCCCC1 | 27.4 (≈ 90 µM)
71 | O=C(CNC(=O)c1ccccc1)OCc1cccc(Br)c1 | 46.4 (≈ 133 µM)
72 | COc1ccc(-c2onc(C)c2-c2ccc3c(c2)OCCO3)c(O)c1 | 2.6 (≈ 7.66 µM)
73 | CC(=O)NCCc1nc2ccccc2n1Cc1cc(C)ccc1C | > 48.2
74 | O=C(CCNC(=O)c1ccccc1)Nc1cccnc1 | > 40.4
75 | Nc1ccc(CCn2ccnc2)cc1 | > 28.1
76 | Cc1ccsc1CNCCc1ccc(F)cc1 | 27.1 (≈ 109 µM)
77 | CN1C(=O)c2cccc3c(S(=O)(=O)NCCc4ccccc4)ccc1c23 | < 0.4
78 | Cc1ccc(NC(=O)CO/N=C/c2ccccc2C)c(C)c1 | 8.7 (≈ 29.4 µM)
79 | COc1cccc(-n2cnc3sc4c(c3c2=O)CCC4)c1 | 5.9 (≈ 19.8 µM)
80 | COC(=O)c1sccc1NC(=O)Nc1ccccc1C | 23.6 (≈ 81.3 µM)
81 | O=C(COc1ccc(Cl)cc1Cl)NCC1(N2CCOCC2)CCCCC1 | 1.9 (≈ 4.73 µM)
82 | CCc1cccc(C)c1N1C(=O)CN(Cc2ccccc2)C1=S | 12.1 (≈ 37.3 µM)
83 | O=C1Nc2ccc(S(=O)(=O)NCC3CCCO3)c3cccc1c23 (stereo not drawn) | > 49.9
84 | CCOC(=O)C1=C(C)N(C)C(=S)NC1c1c(OCC)ccc2ccccc12 (stereo not drawn) | < 0.4
85 | COC(=O)CSc1[nH]c2cc(C)ccc2c1[N+](=O)[O-] | > 42
86 | O=C1CCc2cc(S(=O)(=O)Nc3ccccc3)ccc2N1 | > 45.4
87 | O=C(Nc1ccccn1)c1ccc(Cl)s1 | 30.9 (≈ 129 µM)
88 | CC(C)OCCCNC(=O)NC(=O)c1ccc(Cl)cc1 | 18.3 (≈ 61.3 µM)
